Test results published in ChEMBL document CHEMBL1201862, “PubChem BioAssay data set” (2004).
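Tested at 5 concentrations; 48 h exposure; 96-well plates; endpoints linearly interpolated, else capped at highest concentration. At the GI50, growth is halved.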 The source made the active and inactive calls. No stated cut-off is given here; in the data, active = GI50 up to about 1.1 µM and inactive = higher.

Experiments:
Experiment in all cases: growth of human tumour cells (NCI), 48 h
[1] = system: HT-29
[2] = system: OVCAR-3
[3] = system: UO-31
[4] = system: NCI-H226
[5] = system: SR
[6] = system: SW-620
[7] = system: RPMI-8226
[8] = system: NCI/ADR-RES
[9] = system: RXF 393
[10] = system: ACHN
[11] = system: DU-145
[12] = system: OVCAR-5
[13] = system: SN12C
[14] = system: TK-10
[15] = system: OVCAR-4
[16] = system: 786-0
[17] = system: SNB-19
[18] = system: HOP-62
[19] = system: LOX IMVI
[20] = system: UACC-62

Row | SMILES | GI50 [1] | GI50 [2] | GI50 [3] | GI50 [4] | GI50 [5] | GI50 [6] | GI50 [7] | GI50 [8] | GI50 [9] | GI50 [10] | GI50 [11] | GI50 [12] | GI50 [13] | GI50 [14] | GI50 [15] | GI50 [16] | GI50 [17] | GI50 [18] | GI50 [19] | GI50 [20]
1 | CCCCCCCC/C=C\CCCCCCC(F)C(=O)O (stereo not given) | > 12.5 µM (inactive) | > 12.5 µM (inactive) | > 12.5 µM (inactive) | > 12.5 µM (inactive) | > 12.5 µM (inactive) | > 12.5 µM (inactive) | 11.2 µM (inactive) | > 12.5 µM (inactive) | > 12.5 µM (inactive) | > 12.5 µM (inactive) | > 12.5 µM (inactive) | > 12.5 µM (inactive) | > 12.5 µM (inactive) | > 12.5 µM (inactive) | > 12.5 µM (inactive) | > 12.5 µM (inactive) | > 12.5 µM (inactive) | > 12.5 µM (inactive) | > 12.5 µM (inactive) | 
2 | NC(=O)N/N=C1\CCCCc2ccccc21 | > 10 µM (inactive) | > 10 µM (inactive) | > 10 µM (inactive) | > 10 µM (inactive) | > 10 µM (inactive) | > 10 µM (inactive) | > 10 µM (inactive) | > 10 µM (inactive) | > 10 µM (inactive) | > 10 µM (inactive) | > 10 µM (inactive) | > 10 µM (inactive) | > 10 µM (inactive) | > 10 µM (inactive) | > 10 µM (inactive) | > 10 µM (inactive) | > 10 µM (inactive) | > 10 µM (inactive) |  | 
3 | COc1ccc(N2C(=O)/C(=C\c3cccc(Oc4ccccc4)c3)S(=O)(=O)C2c2ccccc2)cc1 (stereo not given) |  | 28.1 µM (inactive) | 53.6 µM (inactive) | 64.7 µM (inactive) | 3.7 µM (inactive) | 60.8 µM (inactive) |  | 16.2 µM (inactive) | 17.1 µM (inactive) | 98.9 µM (inactive) | 38.3 µM (inactive) | > 100 µM (inactive) | 66.4 µM (inactive) | 37.1 µM (inactive) | 28.6 µM (inactive) | 18.1 µM (inactive) | 47 µM (inactive) | 51.9 µM (inactive) | 27.6 µM (inactive) | 25.1 µM (inactive)
4 | O=CNNC(=O)Nc1cccc2ccccc12 | > 100 µM (inactive) |  | > 100 µM (inactive) | 67.1 µM (inactive) | > 100 µM (inactive) | > 100 µM (inactive) | > 100 µM (inactive) | > 100 µM (inactive) | > 100 µM (inactive) | > 100 µM (inactive) | > 100 µM (inactive) | > 100 µM (inactive) | > 100 µM (inactive) | > 100 µM (inactive) | > 100 µM (inactive) | > 100 µM (inactive) | > 100 µM (inactive) | > 100 µM (inactive) |  | > 100 µM (inactive)
5 | COC(=O)C1=COc2c(n(C)c3ccccc23)-c2ccccc21 | > 100 µM (inactive) | > 100 µM (inactive) | > 100 µM (inactive) | > 100 µM (inactive) | 4.21 µM (inactive) | > 100 µM (inactive) | 97.3 µM (inactive) | > 100 µM (inactive) | > 100 µM (inactive) | 74 µM (inactive) | > 100 µM (inactive) | > 100 µM (inactive) | > 100 µM (inactive) | > 100 µM (inactive) |  | > 100 µM (inactive) | > 100 µM (inactive) | > 100 µM (inactive) | > 100 µM (inactive) | > 100 µM (inactive)
6 | O=CC(NC(=O)N(CCCl)N=O)C(O)C(O)C(O)CO (stereo not given) | > 1250 µM (inactive) | > 1250 µM (inactive) | > 1200 µM (inactive) | 1240 µM (inactive) | 78.7 µM (inactive) | 832 µM (inactive) | 851 µM (inactive) | 953 µM (inactive) | 1150 µM (inactive) | 346 µM (inactive) | 553 µM (inactive) | 1140 µM (inactive) | 902 µM (inactive) | > 1250 µM (inactive) | > 449 µM (inactive) | 56.6 µM (inactive) | 312 µM (inactive) | 136 µM (inactive) |  | 47 µM (inactive)
7 | CCOC(=O)C1C(=O)CC(C)(O)C(C(=O)OCC)C1c1ccc(N(C)C)cc1 (stereo not given) | > 100 µM (inactive) | > 100 µM (inactive) | > 100 µM (inactive) | > 100 µM (inactive) | > 100 µM (inactive) | > 100 µM (inactive) |  | > 100 µM (inactive) | > 100 µM (inactive) | > 100 µM (inactive) | > 100 µM (inactive) | > 100 µM (inactive) | > 100 µM (inactive) | > 100 µM (inactive) | > 100 µM (inactive) | > 100 µM (inactive) | > 100 µM (inactive) | > 100 µM (inactive) | > 100 µM (inactive) | > 100 µM (inactive)
8 | CC(C)(C)/C(=N\Nc1nc2ccccc2[nH]1)c1ccccn1 | 26.2 µM (inactive) | 24.3 µM (inactive) | 42.9 µM (inactive) | > 100 µM (inactive) | > 100 µM (inactive) | 65.2 µM (inactive) | 12.9 µM (inactive) | 65.3 µM (inactive) | > 100 µM (inactive) | 81.3 µM (inactive) | 95.9 µM (inactive) |  | > 100 µM (inactive) | 24.7 µM (inactive) | 53.7 µM (inactive) | > 100 µM (inactive) | > 100 µM (inactive) | > 100 µM (inactive) | > 100 µM (inactive) | > 100 µM (inactive)
9 | CS(=O)(=O)CCC1CCC(=O)O1 (stereo not given) | > 100 µM (inactive) | > 100 µM (inactive) | > 100 µM (inactive) | > 100 µM (inactive) | 85.1 µM (inactive) | > 100 µM (inactive) | > 100 µM (inactive) | > 100 µM (inactive) | 49.2 µM (inactive) | 31.5 µM (inactive) | 96.8 µM (inactive) | > 100 µM (inactive) | 68.1 µM (inactive) | > 100 µM (inactive) |  | > 100 µM (inactive) | > 100 µM (inactive) | 40.5 µM (inactive) | 20.6 µM (inactive) | 
10 | C[C@]12C(=O)OC[C@H](c3ccccc3)N1C(=O)N(Cc1ccccc1)[C@@H]2CO | > 100 µM (inactive) | > 100 µM (inactive) | > 100 µM (inactive) | > 100 µM (inactive) | > 100 µM (inactive) | > 100 µM (inactive) |  | > 100 µM (inactive) | > 100 µM (inactive) | > 100 µM (inactive) | > 100 µM (inactive) | > 100 µM (inactive) | > 100 µM (inactive) | > 100 µM (inactive) | > 100 µM (inactive) | > 100 µM (inactive) | > 100 µM (inactive) | > 100 µM (inactive) | > 100 µM (inactive) | > 100 µM (inactive)
11 | CC[C@@]1(C)CCC2c3ccc(O)cc3CC[C@H]2C1C (stereo not given in full) | 18 µM (inactive) | 20.6 µM (inactive) | 16.7 µM (inactive) |  | 14.3 µM (inactive) | 17 µM (inactive) | 19.4 µM (inactive) | 18.8 µM (inactive) | 13 µM (inactive) | 18.2 µM (inactive) | 16.6 µM (inactive) | 18.8 µM (inactive) | 18.1 µM (inactive) | 19.1 µM (inactive) | 19.4 µM (inactive) | 16.2 µM (inactive) | 17.5 µM (inactive) | 18.7 µM (inactive) | 17 µM (inactive) | 14.7 µM (inactive)
12 | O=C(CSC1=NC(=O)C2(NN1)c1ccccc1-c1ccccc12)NC(=S)Nc1ccccc1 | > 10 µM (inactive) |  | 4.7 µM (inactive) | 8.2 µM (inactive) | 6.03 µM (inactive) | > 10 µM (inactive) | 9.04 µM (inactive) | 7.76 µM (inactive) | > 10 µM (inactive) | 1.81 µM (inactive) | > 10 µM (inactive) | > 10 µM (inactive) | > 10 µM (inactive) | > 10 µM (inactive) | > 10 µM (inactive) | > 10 µM (inactive) | > 10 µM (inactive) | > 10 µM (inactive) | > 10 µM (inactive) | > 10 µM (inactive)
13 | Cc1cc(C)c2c(O)cc(-c3cccc(Cl)c3)nc2n1 | 0.122 µM (active) | 0.106 µM (active) | 3.34 µM (inactive) | 0.391 µM (active) | 0.0855 µM (active) | 0.0578 µM (active) | 0.148 µM (active) | 0.254 µM (active) | 0.179 µM (active) | 2.12 µM (inactive) | 0.5 µM (active) |  | 0.187 µM (active) | > 41.1 µM (inactive) | 77.3 µM (inactive) | 0.261 µM (active) | 0.349 µM (active) | 0.438 µM (active) | 0.273 µM (active) | 0.0681 µM (active)
14 | N#C/C(=C\c1cn(Cc2ccccc2)c2ccccc12)c1nn(-c2ccccc2)c(N)c1C#N | 11.3 µM (inactive) | 18.2 µM (inactive) | 12.9 µM (inactive) |  | 24.7 µM (inactive) | 14.8 µM (inactive) | 19.8 µM (inactive) | 17.4 µM (inactive) | 4.81 µM (inactive) | 18.7 µM (inactive) | 11.1 µM (inactive) | 18.8 µM (inactive) | 15.3 µM (inactive) | 15.8 µM (inactive) | 3.24 µM (inactive) | 7.83 µM (inactive) | 13.6 µM (inactive) |  | 32.2 µM (inactive) | 10.8 µM (inactive)
15 | Clc1cc(Cl)c2cc3cccc[n+]3cc2c1Cl | 15.5 µM (inactive) | 12.1 µM (inactive) | 15.1 µM (inactive) | 16.4 µM (inactive) | 12.2 µM (inactive) | 17.6 µM (inactive) | 16.4 µM (inactive) | 18.3 µM (inactive) |  | 16.3 µM (inactive) | 15.2 µM (inactive) | 19.2 µM (inactive) | 17.9 µM (inactive) | 18.7 µM (inactive) | 15.5 µM (inactive) | 18.7 µM (inactive) | 14.9 µM (inactive) | 15.6 µM (inactive) | 15.7 µM (inactive) | 15.3 µM (inactive)
